# Laboratory results: patent US8754071B2 (priority 2011, dated 2014)
# Where two headings read alike, the source gives them in different places.
# Molecular target: T1, c-kit (Homo sapiens, UniProt P10721)
# T1 construct: human Mo7e cells which endogenously express c-kit; endogenous in cells; host or cells: human Mo7e cells (promegakaryocytic leukemia line), stimulated with human recombinant SCF
# Assay: Mo7e cell proliferation assay (SCF dependent proliferation)
# Type: cell-based
# Experimental: Mo7e Cell Proliferation Assay The compounds of Table 1 and Table 2 were tested for inhibition of SCF dependent proliferation using human Mo7e cells which endogenously express c-kit in a 384 well format. […] After 48 hours of incubation at 37° C., cell viability was measured by adding 25 uL of CellTiter Glo (Promega) to the cells and the luminescence was measured by a […] camera (Molecular Devices). […] The IC50 value is given as that concentration of the test compound in question that provoke a response halfway between the baseline and maximum responses.
# [1] = Table 1, human Mo7e cells stimulated with SCF, 48 hours, CellTiter Glo, 1% FBS, read-out: c-kit (Mo7e)
# [2] = Table 2, human Mo7e cells stimulated with SCF, 48 hours, CellTiter Glo, 1% FBS, read-out: c-kit (Mo7e)
# [3] = Table 2, values marked *: 20% FBS instead of 1% FBS, read-out: c-kit (Mo7e)
# T1 sequence (P10721 26-976): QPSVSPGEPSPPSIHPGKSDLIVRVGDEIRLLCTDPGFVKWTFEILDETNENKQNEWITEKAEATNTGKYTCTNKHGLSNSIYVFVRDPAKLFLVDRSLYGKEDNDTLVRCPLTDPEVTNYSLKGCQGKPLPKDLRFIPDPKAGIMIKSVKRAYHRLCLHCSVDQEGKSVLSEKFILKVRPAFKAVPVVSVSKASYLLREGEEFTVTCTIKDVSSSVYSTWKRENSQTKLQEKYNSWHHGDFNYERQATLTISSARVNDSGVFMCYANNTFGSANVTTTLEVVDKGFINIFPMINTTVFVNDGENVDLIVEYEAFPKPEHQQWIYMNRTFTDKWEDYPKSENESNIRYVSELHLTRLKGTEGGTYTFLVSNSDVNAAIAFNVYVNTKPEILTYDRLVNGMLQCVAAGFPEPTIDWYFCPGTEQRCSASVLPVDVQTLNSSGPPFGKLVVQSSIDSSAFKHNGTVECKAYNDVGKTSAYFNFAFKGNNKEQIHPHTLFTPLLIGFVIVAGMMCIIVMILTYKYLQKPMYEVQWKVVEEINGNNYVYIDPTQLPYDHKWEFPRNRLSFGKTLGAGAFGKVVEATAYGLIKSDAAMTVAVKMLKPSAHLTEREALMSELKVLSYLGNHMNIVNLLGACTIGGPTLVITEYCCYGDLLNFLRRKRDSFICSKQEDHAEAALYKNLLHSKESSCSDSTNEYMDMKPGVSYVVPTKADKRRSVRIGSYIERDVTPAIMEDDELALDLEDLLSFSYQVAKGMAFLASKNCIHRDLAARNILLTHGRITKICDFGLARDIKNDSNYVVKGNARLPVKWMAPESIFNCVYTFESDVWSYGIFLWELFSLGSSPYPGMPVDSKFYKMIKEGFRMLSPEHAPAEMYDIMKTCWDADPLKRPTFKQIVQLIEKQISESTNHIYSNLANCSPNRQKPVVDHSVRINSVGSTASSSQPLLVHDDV
SMILES,IC50 [1],IC50 [2],other results
"COC(=O)N1CC(c2nc(-c3ccc(C)c(NC(=O)c4cnc5ccc(C)cn45)c3)no2)C1 [F62, methyl 3-(3-(4-methyl-3-(6-methylimidazo[1,2-a]pyridine-3-carboxamido)phenyl)-1,2,4-oxadiazol-5-yl)azetidine-1-carboxylate]",0.036 µM,,
Cc1ccc(-c2noc([C@@H]3CCCN(S(C)(=O)=O)C3)n2)cc1NC(=O)c1cnc2ccccn12 [F39],0.049 µM,,
COC(=O)CCS(=O)(=O)N1CC(c2nc(-c3ccc(C)c(NC(=O)c4cnc5ccccn45)c3)no2)C1 [F161],,0.145 µM,
"COC(=O)N1CC(c2nc(-c3ccc(C)c(NC(=O)c4cnc5ccc(CCN6CCOCC6)cn45)c3)no2)C1 [F66, methyl 3-(3-(4-methyl-3-(6-(2-morpholinoethyl)imidazo[1,2-a]pyridine-3-carboxamido)phenyl)-1,2,4-oxadiazol-5-yl)azetidine-1-carboxylate]",0.05 µM,,
Cc1ccc(-c2noc([C@@H]3CCCN(C(=O)OC(C)(C)C)C3)n2)cc1NC(=O)c1cnc2ccccn12 [F186],,0.291 µM,
CCS(=O)(=O)N1CC(c2nc(-c3ccc(F)c(NC(=O)c4cnc5ccccn45)c3)no2)C1 [F155],,0.12 µM,
Cc1ccc(-c2noc(C3CN(C(=O)OCCO)C3)n2)cc1NC(=O)c1cnc2ccccn12 [F150],,0.718 µM,
Cc1ccc(-c2noc([C@H]3CCCO3)n2)cc1NC(=O)c1cnc2ccccn12 [F103],,,IC50 [3]: 0.229 µM
Cc1ccc(-c2noc(C3CN(S(=O)(=O)NC(=O)OC(C)(C)C)C3)n2)cc1NC(=O)c1cnc2ccccn12 [F133],,0.138 µM,
COC(=O)N1CC(c2nc(-c3cc(NC(=O)c4cnc5ccccn45)c(C)cc3F)no2)C1 [F231],,0.439 µM,
Cc1ccc(Nc2noc(C3CCCCO3)n2)cc1NC(=O)c1cnc2ccccn12 (centres unmarked) [F70],0.006 µM,,
Cc1ccc(-c2noc(CN3CC(C#N)C3)n2)cc1NC(=O)c1cnc2ccccn12 [F129],,0.31 µM,
Cc1ccc(-c2noc([C@@H]3CC(F)(F)CN3C(=O)OC(C)(C)C)n2)cc1NC(=O)c1cnc2ccccn12 [F120],,0.311 µM,
Cc1ccc(-c2noc(CN3CC(F)(F)C(F)(F)C3)n2)cc1NC(=O)c1cnc2ccccn12 [F42],0.013 µM,,
CCOC(=O)N1CC(c2nc(-c3ccc(C)c(NC(=O)c4cnc5ccccn45)c3)no2)C1 [F53],0.093 µM,,
Cc1ccc(-c2noc([C@@H]3CCN3S(=O)(=O)C(C)C)n2)cc1NC(=O)c1cnc2ccccn12 [F47],0.047 µM,,
Cc1ccc(-c2nc(CCOC3CCN(Cc4ccccc4)CC3)no2)cc1NC(=O)c1cnc2ccccn12 [F100],,0.198 µM,
"CCS(=O)(=O)N1CC(c2nc(-c3ccc(F)c(NC(=O)c4cnc5ccccn45)c3)no2)C1 [F28, N-(5-(5-(1-(ethylsulfonyl)azetidin-3-yl)-1,2,4-oxadiazol-3-yl)-2-fluorophenyl)imidazo[1,2-a]pyridine-3-carboxamide]",0.12 µM,,
Cc1ccc(-c2noc(CC3CCN(C(=O)OC(C)(C)C)CC3)n2)cc1NC(=O)c1cnc2ccccn12 [F210],,0.71 µM,
COC(=O)N1CC(Cc2nc(-c3ccc(C)c(NC(=O)c4cnc5ccccn45)c3)no2)C1 [F177],,0.398 µM,
Cc1ccc(-c2noc([C@H]3COCCN3)n2)cc1NC(=O)c1cnc2ccccn12 [F118],,0.936 µM,
Cc1ccc(-c2noc([C@@H]3CCCN3S(C)(=O)=O)n2)cc1NC(=O)c1cnc2ccccn12 [F36],0.093 µM,,
"[2H]c1ccn2c(C(=O)Nc3cc(-c4noc(C5CN(C(=O)OC)C5)n4)ccc3C)cnc2c1 [F97, methyl 3-(3-(3-(7-deuteroimidazo[1,2-a]pyridine-3-carboxamido)-4-methylphenyl)-1,2,4-oxadiazol-5-yl)azetidine-1-carboxylate]",0.044 µM,,

SMILES,IC50 [1],IC50 [2],other results
Cc1ccn2c(C(=O)Nc3cc(-c4noc(N5CC(F)(F)C5)n4)ccc3C)cnc2c1 [F86],0.093 µM,,
Cc1ccc(-c2noc(CN3CC(CO)C3)n2)cc1NC(=O)c1cnc2ccccn12 [F181],,0.337 µM,
COC(=O)N1CCC[C@H]1c1nc(-c2ccc(C)c(NC(=O)c3cnc4ccccn34)c2)no1 [F196],,0.475 µM,
Cc1ccc(-c2noc(C3CN(S(=O)(=O)c4ccn(C)n4)C3)n2)cc1NC(=O)c1cnc2ccccn12 [F158],,0.527 µM,
Cc1ccc(-c2noc([C@H]3CCCN3S(C)(=O)=O)n2)cc1NC(=O)c1cnc2ccccn12 [F213],,0.137 µM,
Cc1ccc(-c2nc(N3CCC(F)CC3)no2)cc1NC(=O)c1cnc2ccccn12 [F5],0.034 µM,,
Cc1ccc(-c2nc(N3CC(F)(F)C3)no2)cc1NC(=O)c1cnc2ccccn12 [F2],0.013 µM,,
Cc1ccc(-c2noc(CCCN3CCOCC3)n2)cc1NC(=O)c1cnc2ccccn12 [F20],0.095 µM,,
Cc1ccc(-c2noc(C[C@@H]3CCN(C(=O)OC(C)(C)C)C3)n2)cc1NC(=O)c1cnc2ccccn12 [F184],,0.496 µM,
Cc1ccc(-c2noc(CNC(=O)CC3CCCO3)n2)cc1NC(=O)c1cnc2ccccn12 (centres unmarked) [F145],,0.447 µM,
Cc1ccc(-c2noc(CN3CCCC3=O)n2)cc1NC(=O)c1cnc2ccccn12 [F143],,0.314 µM,
Cc1ccc(-c2noc([C@@H]3CCC(F)(F)CO3)n2)cc1NC(=O)c1cnc2ccccn12 [F11],,,"IC50 (c-kit (Mo7e) μM, Table 1, human Mo7e cells stimulated with SCF, 48 hours, CellTiter Glo, 1% FBS): 0.023 µM"
"COC(=O)N1CC(c2nc(-c3ccc(C)c(NC(=O)c4cnc5cc(-c6ccn(C)n6)ccn45)c3)no2)C1 [F56, methyl 3-(3-(4-methyl-3-(7-(1-methyl-1H-pyrazol-3-yl)imidazo[1,2-a]pyridine-3-carboxamido)phenyl)-1,2,4-oxadiazol-5-yl)azetidine-1-carboxylate]",0.006 µM,,
COC(=O)N1CCOC[C@@H]1c1nc(-c2ccc(C)c(NC(=O)c3cnc4ccccn34)c2)no1 [F166],,0.163 µM,
Cc1ccc(-c2noc(C3CCCCN3S(C)(=O)=O)n2)cc1NC(=O)c1cnc2ccccn12 (centres unmarked) [F110],,,IC50 [3]: 0.227 µM
Cc1ccc(-c2noc(COC(=O)NC3CN(C)C3)n2)cc1NC(=O)c1cnc2ccccn12 [F137],,0.792 µM,
"COC(=O)N1CC(c2nc(-c3ccc(C)c(NC(=O)c4cnc5cc(C)ccn45)c3)no2)C1 [F61, methyl 3-(3-(4-methyl-3-(7-methylimidazo[1,2-a]pyridine-3-carboxamido)phenyl)-1,2,4-oxadiazol-5-yl)azetidine-1-carboxylate]",0.026 µM,,
COC(=O)N1CC(c2nc(-c3ccc(C)c(NC(=O)c4cnc5cc(-c6cnn(CCN7CCOCC7)c6)ccn45)c3)no2)C1 [F63],0.013 µM,,
Cc1ccc(-c2noc([C@@H]3CC(F)(F)CN3)n2)cc1NC(=O)c1cnc2ccccn12 [F121],,0.205 µM,
COC(=O)N1CCCCC1c1nc(-c2ccc(C)c(NC(=O)c3cnc4ccccn34)c2)no1 (centres unmarked) [F9],0.035 µM,,
Cc1ccc(-c2noc(CN3CCC(F)(F)CC3)n2)cc1NC(=O)c1cnc2ccccn12 [F30],0.02 µM,,
Cc1ccc(-c2noc(N3CC(F)(F)C3)n2)cc1NC(=O)c1cnc2cc(F)ccn12 [F87],0.091 µM,,

# More lines, main results first:
IC50 [1],IC50 [2],SMILES,other results
,0.831 µM,Cc1ccc(-c2noc(C3(C)CN(C(=O)OC(C)(C)C)C3)n2)cc1NC(=O)c1cnc2ccccn12 [F239],
,0.176 µM,Cc1nc(N2CC(c3nc(-c4ccc(C)c(NC(=O)c5cnc6ccccn56)c4)no3)C2)no1 [F244],
,5.23 µM,Cc1ccc(-c2noc(CC3CCNC3)n2)cc1NC(=O)c1cnc2ccccn12 (centres unmarked) [F304],
,0.109 µM,COCC(c1nc(-c2ccc(C)c(NC(=O)c3cnc4ccccn34)c2)no1)N1CCC(F)(F)C1 (centres unmarked) [F237],
,1.68 µM,Cc1ccc(-c2noc(C3(N)COC3)n2)cc1NC(=O)c1cnc2ccccn12 [F286],
,0.438 µM,Cc1ccc(-c2noc(C3CN(C(=O)OCC(F)(F)F)C3)n2)cc1NC(=O)c1cnc2ccccn12 [F264],
,0.106 µM,Cc1ccc(-c2noc(CN3CC(C#N)C3)n2)cc1NC(=O)c1cnc2ccc(-c3cnn(C)c3)cn12 [F256],
,4.64 µM,Cc1ccc(-c2noc(CCC(=O)N3CCN(C)CC3)n2)cc1NC(=O)c1cnc2ccccn12 [F303],
,0.249 µM,COC(=O)N1CC(C)(c2nc(-c3ccc(C)c(NC(=O)c4cnc5ccccn45)c3)no2)C1 [F240],
,0.115 µM,COC(=O)N1CC(c2nc(-c3ccc(C)c(NC(=O)c4cnc5ccc(CCC(=O)OC(C)(C)C)cn45)c3)no2)C1 [F241],
,2.86 µM,Cc1ccc(-c2noc(C3CNC3)n2)cc1NC(=O)c1cnc2ccccn12 [F298],
,1.89 µM,Cc1ccc(-c2noc(C3CCNCC3)n2)cc1NC(=O)c1cnc2ccccn12 [F290],
,0.215 µM,COCc1n[nH]c(-c2ccc3ncc(C(=O)Nc4cc(-c5noc(C6CN(C(=O)OC)C6)n5)ccc4C)n3c2)n1 [F253],
,2.79 µM,Cc1ccc(-c2noc([C@@H]3CCCO3)n2)cc1NC(=O)c1cnc2ccccn12 [F297],
,0.111 µM,COC1CN(c2nc(-c3ccc(C)c(NC(=O)c4cnc5cc(C)ccn45)c3)no2)C1 [F254],
,4.33 µM,Cc1ccc(-c2noc([C@H]3C[C@@H](O)CN3)n2)cc1NC(=O)c1cnc2ccc(F)cn12 [F302],
,0.245 µM,Cc1ccc(-c2noc(C3CN(C(=O)OC(C)C)C3)n2)cc1NC(=O)c1cnc2ccccn12 [F234],
,0.114 µM,COC(=O)N1CC(c2nc(-c3ccc(C)c(NC(=O)c4cnc5cc(N6CCOC6=O)ccn45)c3)no2)C1 [F250],
,> 10 µM,COC(=O)N1CC(c2nc(-c3ccc(C)c(NC(=O)c4cnc5ccc(CCc6nn[nH]n6)cn45)c3)no2)C1 [F308],
,0.291 µM,Cc1ccc2ncc(C(=O)Nc3cc(-c4noc(C5CCN5C(=O)OC(C)(C)C)n4)ccc3C)n2c1 (centres unmarked) [F261],
